Laboratory results as given in PubChem BioAssay (NCI).
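Method: 48-hour compound exposure of cells in 96-well plates, five concentrations, linear interpolation of endpoints. Abbreviation: GI50, concentration required for 50% inhibition of growth. Definition used: TGI = concentration required for complete inhibition of growth.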

Columns and labels:
Test in all cases: NCI tumour cell line growth inhibition, 48 h
SF-268 CNS = tested on: SF-268 CNS
RPMI-8226 leukemia = tested on: RPMI-8226 leukemia
HCC-2998 colon = tested on: HCC-2998 colon
BT-549 breast = tested on: BT-549 breast
NCI-H226 lung = tested on: NCI-H226 lung
U251 CNS = tested on: U251 CNS
NCI/ADR-RES ovarian = tested on: NCI/ADR-RES ovarian
NCI-H522 lung = tested on: NCI-H522 lung
MDA-MB-435 = tested on: MDA-MB-435
IGROV1 ovarian = tested on: IGROV1 ovarian

Row | SMILES | GI50 (SF-268 CNS) | TGI (SF-268 CNS) | GI50 (RPMI-8226 leukemia) | TGI (RPMI-8226 leukemia) | GI50 (HCC-2998 colon) | TGI (HCC-2998 colon) | GI50 (BT-549 breast) | TGI (BT-549 breast) | GI50 (NCI-H226 lung) | TGI (NCI-H226 lung) | GI50 (U251 CNS) | TGI (U251 CNS) | GI50 (NCI/ADR-RES ovarian) | TGI (NCI/ADR-RES ovarian) | GI50 (NCI-H522 lung) | TGI (NCI-H522 lung) | GI50 (MDA-MB-435) | TGI (MDA-MB-435) | GI50 (IGROV1 ovarian) | TGI (IGROV1 ovarian)
1 | COc1ccc2c(O)c(/C=C3\N=Nc4ncccc43)oc2c1C[C@H]1CCNC[C@H]1F | 0.296 µM | 10.4 µM | 0.286 µM | 1.06 µM | 2.38 µM | 11.5 µM | 0.211 µM | 2.3 µM | 0.16 µM | 5.29 µM | 0.307 µM | 3.29 µM | 3.37 µM | 28.9 µM | 0.206 µM | 2.23 µM | 0.467 µM | 10.6 µM | 0.353 µM | 5.06 µM
2 | COc1cc(/C=C2\CCCC3C2=Nc2ccccc2NC3c2cc(OC)c(OC)c(OC)c2)cc(OC)c1OC (stereo unspecified) | 2.02 µM | 71.5 µM | 0.389 µM | 2.4 µM | 2.3 µM | 4.81 µM | 1.58 µM | 5.5 µM | 1.93 µM | 4.19 µM | – | – | 0.957 µM | > 100 µM | 1.9 µM | 4.92 µM | 0.425 µM | 4.4 µM | 4.1 µM | 18.5 µM
3 | CCOC(=O)C12CCSC1C1(C#N)C(C#N)=CC2(N=P(c2ccccc2)(c2ccccc2)c2ccccc2)n2c(=O)n(-c3ccccc3)c(=O)n21 (stereo unspecified) | – | > 100 µM | – | 73.4 µM | – | > 100 µM | – | – | – | > 100 µM | – | > 100 µM | – | – | – | 87.2 µM | – | – | – | > 100 µM
4 | CSc1c(S(C)=O)[nH]c2cc(Br)cc(Br)c12 (stereo unspecified) | – | – | – | 57.7 µM | – | 34.7 µM | – | – | – | 67.9 µM | – | – | – | – | – | 55.5 µM | – | – | – | > 100 µM
5 | COc1ccc(C(=O)Nc2ccc(S(=O)(=O)NCC(=O)O)cc2)cc1 | – | > 100 µM | – | > 100 µM | – | > 100 µM | – | – | – | – | – | > 100 µM | – | – | – | > 100 µM | – | – | – | > 100 µM
6 | CC1(C(=O)NCCN(CCNC(=O)C2(C)CC3(C)CC(C)(C2)C(=O)NC3=O)CCNC(=O)C2(C)CC3(C)CC(C)(C2)C(=O)NC3=O)CC2(C)CC(C)(C1)C(=O)NC2=O (stereo unspecified) | – | – | – | > 100 µM | – | > 100 µM | – | – | – | – | – | > 100 µM | – | – | – | – | – | – | – | > 100 µM
7 | Fc1c[c-]c(-c2ccccn2)c(F)c1.[CH3-].[Pt+2].c1ccc([PH+](c2ccccc2)c2ccccn2)cc1 | 1.89 µM | 5.18 µM | 0.412 µM | 4.44 µM | 1.83 µM | 3.53 µM | – | – | 1.73 µM | 3.8 µM | 1.88 µM | 6.02 µM | 1.81 µM | 5.35 µM | 1.94 µM | 8.18 µM | 1.74 µM | 3.45 µM | 1.71 µM | 5.02 µM
8 | c1ccc(CCCNc2nnnc3ccccc23)cc1 | – | > 100 µM | – | > 100 µM | – | – | – | > 100 µM | – | > 100 µM | – | > 100 µM | – | > 100 µM | – | > 100 µM | – | > 100 µM | – | > 100 µM
9 | COc1cc([N+](=O)[O-])c(S(=O)(=O)O)cc1N | – | > 100 µM | – | > 100 µM | – | – | – | > 100 µM | – | > 100 µM | – | > 100 µM | – | > 100 µM | – | > 100 µM | – | > 100 µM | – | > 100 µM
